Patent publication US8757784B2, “Ink for ink jet recording and recording method” (Seiko Epson Corporation, priority 2012, dated 2014)

Experiment: physchem
Conditions: not given
Source text: Herein, the “logP value” is an index that represents hydrophobicity of a compound. The logP value represents, in an octanol/water system, in which ratio a solute is distributed in these two layers. In other words, when the logP value of the solute is bigger, the hydrophobicity is higher and the solute is well dissolved in an octanol phase.
For example, the logP value can be determined using a flask shaking method using the solute and two types of solvents being actually placed in a flask and mixed by shaking the flask well, or a HPLC method using a high performance liquid chromatography (HPLC).

Compound	logP	logP value
OCCCCO [1,4-butanediol]	0.5	0.50
CC(C)C(O)C(C)(C)CO (stereo not shown) [2,2,4-trimethyl-1,3-pentanediol]	2	
CC(O)C(C)O (stereo not shown) [2,3-butanediol]	-0.36	

Same assay, conditions: octanol/water system

Compound	logP value
OCCCO [1,3-propanediol]	−1.33
OCC(O)CO [glycerin]	−2.70
CCC(CO)(CO)CO [trimethylol propane]	−0.47

Same assay, conditions: octanol/water, logP value, octanol/water system

Compound	logP
CCC(O)CO (stereo not shown) [1,2-butanediol]	-0.32
CCCCC(O)CO (stereo not shown) [1,2-hexanediol]	0.5
CCCC(O)CO (stereo not shown) [1,2-pentanediol]	0.01
CCC(O)CCO (stereo not shown) [1,3-pentanediol]	-0.16
CCCC(=O)OCC(O)CO (stereo not shown) [1-butanoyl glycerol]	0
CC(C)(CO)CO [2,2-dimethyl-1,3-propanediol]	-0.3
CC(C)(O)CCC(C)(C)O [2,5-dimethyl-2,5-hexanediol]	1.53
CC(O)CCC(C)O (stereo not shown) [2,5-hexanediol]	0.62
CCCCC(CC)(CO)CO [2-butyl-2-ethyl-1,3-propanediol]	2.1
CC(C)(O)CO [2-methyl-1,2-propanediol]	0.026
CC(CO)CO [2-methyl-1,3-propanediol]	-0.6
CC(O)CC(C)(C)O (stereo not shown) [2-methyl-2,4-pentanediol]	0.88
CC(C)(O)CCO [3-methyl-1,3-butanediol]	-0.33
CC(CCO)CCO [3-methyl-1,5-pentanediol]	-0.2
CC(O)CO (stereo not shown) [propylene glycol]	-0.92
